Measured values taken from PubChem BioAssay (NCI).
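Cells were grown in 96-well plates and exposed to each compound for 48 hours at five concentrations; endpoints were interpolated linearly between bracketing concentrations, or set to the highest concentration if not reached. TGI: concentration producing complete growth inhibition.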

Key:
Experiment in all cases: growth of human tumour cells (NCI), 48 h
[1] = test system: ACHN renal
[2] = test system: CAKI-1 renal
[3] = test system: HCT-15 colon
[4] = test system: MCF7 breast
[5] = test system: MDA-MB-231 breast
[6] = test system: MDA-N
[7] = test system: SN12C renal
[8] = test system: SNB-19 CNS
[9] = test system: RPMI-8226 leukemia

With Cc1ccc(-c2c(C#N)c(-c3ccc([N+](=O)[O-])cc3)c(C#N)c(=O)n2NS(=O)(=O)c2ccccc2)cc1 the TGI [1] was over 100 µM, the TGI [2] was over 100 µM and the TGI [3] was over 100 µM. The TGI [4] was 54.1 µM, the TGI [5] was over 100 µM and the TGI [6] was over 100 µM. It also gave a TGI [7] of over 100 µM and a TGI [8] of over 100 µM.
In the case of CC1(C)[C@@H](Cn2cnc3c(Cl)nc(N)nc32)CC[C@@]1(C)CO, the TGI [1] is reported as over 100 µM, the TGI [2] is reported as over 100 µM and the TGI [3] is reported as over 100 µM. It also gave a TGI [4] of over 100 µM, a TGI [5] of over 100 µM and a TGI [6] of 91.7 µM. For the same molecule, the TGI [9] was 89.2 µM, the TGI [7] was over 100 µM and the TGI [8] was over 100 µM.
With COC(=O)c1cc2c(cc1CC(Cc1ccc3c(c1)CCC3)C(=O)OC)CCC2 (stereo not drawn) the TGI [1] was over 100 µM, the TGI [2] was over 100 µM and the TGI [3] was over 100 µM. The TGI [4] was 92.7 µM, the TGI [5] was over 100 µM and the TGI [6] was over 100 µM. It also gave a TGI [9] of 66.8 µM, a TGI [7] of over 100 µM and a TGI [8] of over 100 µM.
CC(C)(C)c1ccc(OCC(=O)O)c(Cl)c1 gave a TGI [1] of over 100 µM, a TGI [2] of over 100 µM and a TGI [3] of over 100 µM. The TGI [4] was over 100 µM, the TGI [5] was over 100 µM and the TGI [6] was over 100 µM. For the same molecule, the TGI [9] was over 100 µM, the TGI [7] was over 100 µM and the TGI [8] was over 100 µM.
Molecule COC(=O)c1cc(C)ccc1CC(Cc1ccc(C)cc1)C(=O)OC (stereo not drawn) has a TGI [1] of over 100 µM, a TGI [2] of over 100 µM and a TGI [3] of over 77.9 µM. For the same molecule, the TGI [4] was over 31.6 µM, the TGI [5] was over 100 µM and the TGI [6] was over 100 µM. The TGI [9] was over 100 µM, the TGI [7] was over 100 µM and the TGI [8] was over 100 µM.
Cc1c(C#N)c(N)n(C2OCC(O)C(O)C2O)c(=S)c1C#N (stereo not drawn) was tested, and the TGI [1] was over 100 µM, the TGI [2] was over 100 µM and the TGI [3] was over 100 µM. It also gave a TGI [4] of over 100 µM, a TGI [5] of over 100 µM and a TGI [6] of over 100 µM. It also gave a TGI [9] of over 100 µM, a TGI [7] of over 100 µM and a TGI [8] of over 100 µM.
Work on COC(=O)C1=C(C)NC(C)=C([N+](=O)[O-])C1c1cccc(N=O)c1 (stereo not drawn) yielded a TGI [1] of 24.8 µM, a TGI [2] of 20.6 µM and a TGI [3] of 29.1 µM. The TGI [4] was 38.5 µM, the TGI [5] was 32.6 µM and the TGI [6] was 21.6 µM. It also gave a TGI [9] of over 100 µM, a TGI [7] of 34.5 µM and a TGI [8] of over 100 µM.
c1ccc(C2=Nn3c(CCCCCCCCc4nnc5n4N=C(c4ccccc4)CS5)nnc3SC2)cc1 was tested, and the TGI [1] was over 100 µM, the TGI [2] was over 100 µM and the TGI [3] was over 100 µM. For the same molecule, the TGI [4] was over 100 µM, the TGI [5] was 80.6 µM and the TGI [6] was over 100 µM. It also gave a TGI [9] of over 100 µM, a TGI [7] of over 100 µM and a TGI [8] of 43.3 µM.
In the case of CSC(SC)=C1C(=O)N(c2ccccc2)N=C1C, the TGI [1] is reported as over 100 µM, the TGI [2] is reported as 65.8 µM and the TGI [3] is reported as over 100 µM. It also gave a TGI [4] of 46 µM, a TGI [5] of over 100 µM and a TGI [6] of over 100 µM. For the same molecule, the TGI [7] was 97.3 µM and the TGI [8] was 98.1 µM.
Work on COc1cc([C@@H]2c3cc4c(cc3[C@@H](c3c(O)cc(O)c5c3O[C@H](c3ccc(O)c(O)c3)[C@@H](O)C5)[C@H]3COC(=O)[C@H]23)OCO4)cc(OC)c1O yielded a TGI [1] of over 100 µM, a TGI [2] of over 100 µM and a TGI [3] of over 100 µM. For the same molecule, the TGI [4] was over 100 µM, the TGI [5] was over 100 µM and the TGI [6] was over 100 µM. The TGI [9] was over 100 µM, the TGI [7] was over 100 µM and the TGI [8] was over 100 µM.
CN(C)P(=O)(Oc1occc1C(O)Cc1ccccc1)N(C)C (stereo not drawn) gave a TGI [1] of over 100 µM, a TGI [2] of over 100 µM and a TGI [3] of over 100 µM. The TGI [4] was over 100 µM, the TGI [5] was over 100 µM and the TGI [6] was over 100 µM. The TGI [9] was over 100 µM, the TGI [7] was over 100 µM and the TGI [8] was over 100 µM.
COc1cc(CNc2nc3cc(C(F)(F)F)ccc3nc2-c2ccccc2)cc(OC)c1OC gave a TGI [1] of over 100 µM, a TGI [2] of over 100 µM and a TGI [3] of 56 µM. It also gave a TGI [4] of 22.4 µM, a TGI [5] of 67.5 µM and a TGI [6] of over 100 µM. For the same molecule, the TGI [9] was over 100 µM, the TGI [7] was over 100 µM and the TGI [8] was over 100 µM.
For COc1ccc(N=Nc2c3c(c(O)c4ccccc24)CCC(C)(C)O3)cc1, the TGI [1] was 32.4 µM, the TGI [2] was 72.3 µM and the TGI [3] was 28.9 µM. For the same molecule, the TGI [4] was 29.5 µM, the TGI [5] was 63.9 µM and the TGI [6] was 30.6 µM. The TGI [9] was 98.1 µM, the TGI [7] was 38.7 µM and the TGI [8] was 50.4 µM.
In the case of O=C1CCc2ccc3c(c21)CC1(Cc2ccccc2C1)C3, the TGI [1] is reported as over 100 µM, the TGI [2] is reported as over 100 µM and the TGI [3] is reported as over 100 µM. It also gave a TGI [4] of over 100 µM, a TGI [5] of 40.2 µM and a TGI [6] of over 100 µM. For the same molecule, the TGI [9] was over 100 µM, the TGI [7] was over 100 µM and the TGI [8] was over 100 µM.
In the case of O=C(O)c1ccc2c(c1)CC1(C2)Cc2cc3c(cc2C1=O)CCC3 (stereo not drawn), the TGI [1] is reported as over 100 µM, the TGI [3] is reported as over 100 µM and the TGI [4] is reported as over 100 µM. For the same molecule, the TGI [5] was over 100 µM, the TGI [6] was over 100 µM and the TGI [9] was over 100 µM. For the same molecule, the TGI [7] was over 100 µM and the TGI [8] was over 100 µM.
In the case of OC1(c2ccc(Cl)cc2)c2ccc(CN3CCCC3)cc2C2=NCCN21 (stereo not drawn), the TGI [1] is reported as 30.3 µM, the TGI [2] is reported as 31.7 µM and the TGI [3] is reported as 32.9 µM. It also gave a TGI [4] of 33.4 µM, a TGI [5] of 27.3 µM and a TGI [6] of 22.8 µM. The TGI [9] was 26 µM, the TGI [7] was 31.7 µM and the TGI [8] was 31.1 µM.
In the case of CC/C(Cl)=N\OC(=O)Nc1ccc(F)c([N+](=O)[O-])c1, the TGI [1] is reported as 4.78 µM, the TGI [2] is reported as 7.7 µM and the TGI [3] is reported as 19.8 µM. For the same molecule, the TGI [4] was over 37.8 µM, the TGI [5] was 34.9 µM and the TGI [6] was 39.6 µM. The TGI [9] was over 25.3 µM, the TGI [7] was 47.1 µM and the TGI [8] was 33.7 µM.
Cc1cn([C@H]2C[C@](C)(CO)N(C)O2)c(=O)[nH]c1=O was tested, and the TGI [1] was over 100 µM, the TGI [2] was over 100 µM and the TGI [4] was over 100 µM. The TGI [5] was over 100 µM, the TGI [6] was over 100 µM and the TGI [9] was over 100 µM. For the same molecule, the TGI [7] was over 100 µM and the TGI [8] was over 100 µM.
Molecule O=C1CS(=O)C23c4cc5ccccc5n4CCC2CCCN13 (stereo not drawn) has a TGI [1] of over 100 µM, a TGI [2] of over 100 µM and a TGI [3] of over 100 µM. It also gave a TGI [4] of over 100 µM, a TGI [5] of over 100 µM and a TGI [6] of over 100 µM. For the same molecule, the TGI [9] was over 100 µM, the TGI [7] was over 100 µM and the TGI [8] was over 100 µM.
COc1ccc(N=C2C(=S)N(c3ccc(OC)cc3)/C(=N/S(=O)(=O)c3ccccc3)N2c2ccccc2)cc1 gave a TGI [1] of 21.7 µM, a TGI [2] of 28.2 µM and a TGI [3] of 23.5 µM. For the same molecule, the TGI [4] was 35.8 µM, the TGI [5] was 10.6 µM and the TGI [6] was 8.81 µM. The TGI [9] was over 100 µM, the TGI [7] was 32.4 µM and the TGI [8] was over 61 µM.
O=C(O)CC(NC(=O)/C(=C/c1ccccc1O)NC(=O)c1ccccc1)C(=O)O (stereo not drawn) gave a TGI [1] of over 100 µM, a TGI [2] of over 100 µM and a TGI [3] of over 100 µM. The TGI [4] was over 100 µM, the TGI [5] was over 100 µM and the TGI [6] was over 100 µM. It also gave a TGI [9] of over 100 µM and a TGI [7] of over 100 µM.
COC(=O)[C@H](C)NC(=O)[C@H](CSC)N1C(=O)N[C@@H](C(C)C)C1=O showed a TGI [1] of over 100 µM, a TGI [2] of over 100 µM and a TGI [3] of over 100 µM. It also gave a TGI [4] of over 100 µM, a TGI [5] of over 100 µM and a TGI [6] of over 100 µM. The TGI [9] was over 100 µM, the TGI [7] was over 100 µM and the TGI [8] was over 100 µM.
